Reference: paper PMC7506137, “Selective Phosphodiesterase 1 Inhibitor BTTQ Reduces Blood Pressure in Spontaneously Hypertensive and Dahl Salt Sensitive Rats: Role of Peripheral Vasodilation” (Frontiers in Physiology, 2020)
Several values for one entry are separate records, joined by “and”; a condition that tells them apart may be missing. Identical values can stand only once. Like-named read-outs stand apart in the source and are kept apart here.

Assay: Plasma exposure (dried blood spot) after single oral dose
Format: in vivo
Details: rat; for concentration at 5 h / concentration at 6 h / concentration at 24 h: Sprague Dawley, po, 3 mg/kg, oral 3 mg/kg; for concentration at 24 h / Unbound Concentration, individual animals / Concentration, individual animals: 24 h
Method: Male Sprague Dawley rats at 6 to 7 weeks were dosed orally by p.o. gavage with different doses of BTTQ formulated in 1% hydroxyethlycellulose (Dow Corning, Midland, MI, United States) (w/v), 0.25% polysorbate 80 (Sigma-Aldrich, St. Louis, MO, United States) (v/v), and 0.05% antifoam (v/v; Dow Corning, Midland, MI, United States) in purified water. Following dosing, ear temperature was measured by using a k-type thermocouple probe digital thermometer (Cole Parmer) every hour for 6 h and then at 24 h. Blood samples for plasma exposure measurement were obtained at the same time. Blood was collected via a tail snip directly into a 20-μL EDTA-coated capillary and immediately spotted onto a Whatman DMPK-C DBS card (GE Healthcare Bio-Sciences). Tail snips were performed by removing approximately 1 mm of the tail by using a scalpel. Blood flow was initiated by gentle squeezing of the tail. No analgesia or anesthesia was used during blood collections. A single sample and spot were collected per time point. The DBS cards were allowed to dry for approximately 2 h at room temperature, after which the cards were placed in a zip-top bag, stored, and shipped at ambient temperature.

## O=c1c2nnc(C3(C4CC4)CC3)n2c2c(n1CC1CC1)CCCC2 [BTTQ, 1-[1,1′-bi(cyclopropyl)-1-yl]-5-(cyclopropylmethyl)-6,7,8,9-tetrahydro[1,2,4]triazolo[4,3-A]quinoxaline-4(5H)-one]
male, whole blood (dried blood spot), 5 h, dried blood spot, read-out: Concentration, Mean
  concentration at 5 h: 2170 nM
male, whole blood (dried blood spot), 5 h, dried blood spot, read-out: Concentration, individual animals
  concentration at 5 h: 2680 nM
male, whole blood (dried blood spot), 6 h, FU 0.053, read-out: Unbound Concentration, Mean
  concentration at 6 h: 93.5 nM
male, whole blood (dried blood spot), 6 h, FU 0.053, read-out: Unbound Concentration, individual animals
  concentration at 6 h: 98.1 nM
male, whole blood (dried blood spot), 6 h, dried blood spot, read-out: Concentration, Mean
  concentration at 6 h: 1760 nM
male, whole blood (dried blood spot), 6 h, dried blood spot, read-out: Concentration, individual animals
  concentration at 6 h: 1850 nM
male, whole blood (dried blood spot), FU 0.053, read-out: Unbound Concentration, Mean
  concentration at 24 h: 5 nM
male, whole blood (dried blood spot), dried blood spot, read-out: Concentration, Mean
  concentration at 24 h: 94.2 nM
male, whole blood (dried blood spot), after oral administration, Sprague Dawley rats
  half-life: ~4 h
Oral 0.03 mg/kg, 5 h, FU 0.053, 0.03 mg/kg, read-out: Unbound Concentration, individual animals
  concentration at 4 h: 1.35 nM and 1.39 nM (2×) and 1.51 nM
Oral 0.03 mg/kg, 5 h, dried blood spot, 0.03 mg/kg, read-out: Concentration, individual animals
  concentration at 4 h: 25.4 nM and 26.3 nM and 28.4 nM and 26.2 nM
Oral 0.03 mg/kg, 6 h, FU 0.053, 0.03 mg/kg, read-out: Unbound Concentration, individual animals
  concentration at 4 h: 1.93 nM and 0.917 nM and 0.906 nM and 0.938 nM and 1.13 nM
Oral 0.03 mg/kg, 6 h, dried blood spot, 0.03 mg/kg, read-out: Concentration, individual animals
  concentration at 4 h: 36.4 nM and 17.3 nM and 17.1 nM and 17.7 nM and 21.4 nM
Oral 0.03 mg/kg, FU 0.053
  Unbound Concentration, individual animals: BQL
Oral 0.03 mg/kg, dried blood spot
  Concentration, individual animals: BQL
Oral 0.1 mg/kg, 1 h, FU 0.053, 0.1 mg/kg, read-out: Unbound Concentration, individual animals
  concentration at 4 h: 12.1 nM and 9.12 nM and 9.54 nM and 9.28 nM
Oral 0.1 mg/kg, 1 h, dried blood spot, 0.1 mg/kg, read-out: Concentration, individual animals
  concentration at 4 h: 229 nM and 172 nM and 180 nM and 175 nM
Oral 0.1 mg/kg, 2 h, FU 0.053, 0.1 mg/kg, read-out: Unbound Concentration, individual animals
  concentration at 4 h: 10.2 nM and 10.1 nM and 8.9 nM and 9.22 nM
Oral 0.1 mg/kg, 2 h, dried blood spot, 0.1 mg/kg, read-out: Concentration, individual animals
  concentration at 4 h: 193 nM and 190 nM and 168 nM and 174 nM
Oral 0.1 mg/kg, 3 h, FU 0.053, 0.1 mg/kg, read-out: Unbound Concentration, individual animals
  concentration at 4 h: 8.96 nM and 9.91 nM and 7.63 nM and 9.49 nM
Oral 0.1 mg/kg, 3 h, dried blood spot, 0.1 mg/kg, read-out: Concentration, individual animals
  concentration at 4 h: 169 nM and 187 nM and 144 nM and 179 nM
Oral 0.1 mg/kg, 4 h, FU 0.053, 0.1 mg/kg, read-out: Unbound Concentration, individual animals
  concentration at 4 h: 7.05 nM and 7.21 nM and 4.67 nM and 7.74 nM
Oral 0.1 mg/kg, 4 h, dried blood spot, 0.1 mg/kg, read-out: Concentration, individual animals
  concentration at 4 h: 133 nM and 136 nM and 88.1 nM and 146 nM
Oral 0.1 mg/kg, 5 h, FU 0.053, 0.1 mg/kg, read-out: Unbound Concentration, individual animals
  concentration at 4 h: 5.35 nM and 4.7 nM and 3.91 nM and 5.72 nM
Oral 0.1 mg/kg, 5 h, dried blood spot, 0.1 mg/kg, read-out: Concentration, individual animals
  concentration at 4 h: 101 nM and 88.7 nM and 73.7 nM and 108 nM
Oral 0.1 mg/kg, 6 h, FU 0.053, 0.1 mg/kg, read-out: Unbound Concentration, individual animals
  concentration at 4 h: 5.83 nM and 4.21 nM and 3.48 nM and 4.92 nM
Oral 0.1 mg/kg, 6 h, dried blood spot, 0.1 mg/kg, read-out: Concentration, individual animals
  concentration at 4 h: 110 nM and 79.5 nM and 65.7 nM and 92.8 nM
Oral 0.1 mg/kg, FU 0.053, 0.1 mg/kg
  Unbound Concentration, individual animals: BQL
Oral 0.1 mg/kg, dried blood spot, 0.1 mg/kg
  Concentration, individual animals: BQL
Oral 0.3 mg/kg, 1 h, FU 0.053, 0.3 mg/kg, read-out: Unbound Concentration, individual animals
  concentration at 4 h: 19.2 nM and 31.4 nM and 33.8 nM and 30 nM
Oral 0.3 mg/kg, 1 h, dried blood spot, 0.3 mg/kg, read-out: Concentration, individual animals
  concentration at 4 h: 362 nM and 593 nM and 638 nM and 566 nM
Oral 0.3 mg/kg, 2 h, FU 0.053, 0.3 mg/kg, read-out: Unbound Concentration, individual animals
  concentration at 4 h: 25.4 nM and 27.8 nM and 21 nM and 25 nM
Oral 0.3 mg/kg, 2 h, dried blood spot, 0.3 mg/kg, read-out: Concentration, individual animals
  concentration at 4 h: 479 nM and 525 nM and 397 nM and 472 nM
Oral 0.3 mg/kg, 3 h, FU 0.053, 0.3 mg/kg, read-out: Unbound Concentration, individual animals
  concentration at 4 h: 14.8 nM and 17.4 nM and 17.1 nM and 19.2 nM
Oral 0.3 mg/kg, 3 h, dried blood spot, 0.3 mg/kg, read-out: Concentration, individual animals
  concentration at 4 h: 280 nM and 328 nM and 323 nM and 363 nM
Oral 0.3 mg/kg, 4 h, FU 0.053, 0.3 mg/kg, read-out: Unbound Concentration, individual animals
  concentration at 4 h: 12.1 nM (2×) and 11.3 nM and 11.1 nM
Oral 0.3 mg/kg, 4 h, dried blood spot, 0.3 mg/kg, read-out: Concentration, individual animals
  concentration at 4 h: 229 nM (2×) and 213 nM and 210 nM
Oral 0.3 mg/kg, 5 h, FU 0.053, 0.3 mg/kg, read-out: Unbound Concentration, individual animals
  concentration at 4 h: 8 nM
Oral 0.3 mg/kg, FU 0.053
  Unbound Concentration, individual animals: BQL
Oral 0.3 mg/kg, dried blood spot
  Concentration, individual animals: BQL
